Test results taken from PubChem BioAssay AID2127 (Sanford-Burnham Center for Chemical Genomics, 2009).
pIC50: −log10 of the molar value. Calls of active or inactive are those of the source.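 How the source made its calls: active means half-maximal inhibitory concentration below a set limit; inactive means the rest.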

biological target: E3 ubiquitin-protein ligase SIAH1 (Homo sapiens) (UniProt Q8IUQ4); assay: displacement of labeled plectin from Siah-1 – biochemical, fluorescence polarization, fluorescein-plectin, artefact control for Siah-1 antagonist project, dose response (AID 2127); conditions: Siah-1/fluorescein-plectin binding

SMILES | IC50 | pIC50
CN(C)c1cccc2c(C=C(C#N)C#N)ccc(N(C)C)c12 | > 200 µM (inactive) | 
CCOC(=O)c1c(C)[nH]c2c1-c1ccccc1C(=O)C2=O | > 200 µM (inactive) | 
COC(=O)C1CC(=O)N(c2ccc(OCc3ccccc3Cl)cc2)C1 (centres undefined) | > 200 µM (inactive) | 
Cc1ccc(C(=O)COc2ccccc2C(=O)Nc2ccccc2)cc1 | > 200 µM (inactive) | 
Cc1ccc(S(=O)(=O)N2CCC(=O)N(C(COCc3cccc(C)c3)Cc3ccccc3)CC2)cc1 (centres undefined) | > 200 µM (inactive) | 
COc1cccc2cc(C(=O)N3CCc4ccccc43)c(=O)oc12 | > 200 µM (inactive) | 
O=C(N/N=C/c1ccc(OC(=O)c2cccs2)cc1)c1cccc(F)c1 | > 200 µM (inactive) | 
CCCCNc1nnc(Cc2ccc(Cl)cc2)c(=O)[nH]1 | > 200 µM (inactive) | 
CCCCNc1c2c3c(cccc3n(C)c1=O)C(=O)c1ccccc1-2 | > 200 µM (inactive) | 
O=C(CCN1CCN(Cc2ccccc2)CC1)Nc1cccc(Cl)c1 | > 200 µM (inactive) | 
CC1CCCCC1NC(=O)CCS(=O)(=O)c1ccc2c(c1)NC(=O)CO2 (centres undefined) | > 200 µM (inactive) | 
O=C(O)c1cc(Cl)c(Cl)cc1C(=O)Nc1cccc2cccnc12 | > 200 µM (inactive) | 
C[N+]1(CCNC(=O)/C=N/O)CCCCC1 | > 200 µM (inactive) | 
COC(=O)c1ccc2c(c1)C(C)(C)C(/C=C/c1ccccc1O)=[N+]2C | > 200 µM (inactive) | 
NS(=O)(=O)c1ccc(NC(=O)c2cccc(N3C(=O)c4ccccc4C3=O)c2)cc1 | > 200 µM (inactive) | 
O=C(NCc1ccc(Cl)cc1)c1cc(-c2cccs2)on1 | > 200 µM (inactive) | 
CC1CCN(S(=O)(=O)c2nnc(NC(=O)c3cccc(Cl)c3)s2)CC1 | > 200 µM (inactive) | 
CC(C)COc1ccc(-c2nn(-c3ccccc3)cc2/C=C2/SC(=S)N(CC(=O)O)C2=O)cc1 | > 200 µM (inactive) | 
COc1ccc(-c2cnnn2-c2ccc(N)cc2)cc1OC | > 200 µM (inactive) | 
C=CCn1c(NS(=O)(=O)c2ccccc2)c(S(=O)(=O)c2ccc(C)cc2)c2nc3ccccc3nc21 | > 200 µM (inactive) | 
CN1/C(=C\C=C\C2=[N+](C)c3ccc4ccccc4c3C2(C)C)C(C)(C)c2ccccc21 | > 200 µM (inactive) | 
COCCCn1c(N)c(C(=O)NCc2ccco2)c2nc3ccccc3nc21 | > 200 µM (inactive) | 
Fc1ccc(/C=N/NC(=S)Nc2cccnc2)cc1F | > 200 µM (inactive) | 

SMILES | IC50 | pIC50
O=c1ccc2c(-c3ccccc3)c3ccc(O)cc3oc-2c1 | > 200 µM (inactive) | 
Cc1ccccc1-c1nc2c3ccccc3nc(=S)n2[nH]1 | > 200 µM (inactive) | 
O=C(O)c1ccc(/C=N/NC(=O)c2ccc(CN3c4cccc5cccc(c45)S3(=O)=O)cc2)cc1 | > 200 µM (inactive) | 
O=C(Nc1ccc(Cl)cc1)OCc1cn(-c2ccccc2)nn1 | > 200 µM (inactive) | 
O=c1[nH]n(-c2ccc([N+](=O)[O-])cc2)c(=O)c2ccccc12 | > 200 µM (inactive) | 
COc1cc(CC(=O)NCc2ccc3c(c2)OCO3)cc(OC)c1OC | > 200 µM (inactive) | 
COC(=O)C1C=C2c3cccc4[nH]cc(c34)CC2N(C)C1 (centres undefined) |  | 5.21
O=C(Nc1ccc(S(=O)(=O)N2CCOCC2)cc1)c1ccc(=O)[nH]c1 | > 200 µM (inactive) | 
Cc1ccc2c(c1)N(CC(=O)NCCc1ccc(Cl)cc1)C(=O)c1cccnc1O2 | > 200 µM (inactive) | 
CCC(C)N1C(=O)/C(=C/c2c(NCCCOC(C)C)nc3c(C)cccn3c2=O)SC1=S (centres undefined) |  | 5.25
COc1ccc(CCNC(=O)CCC(=O)N2CCOc3ccc(C)cc32)cc1OC | > 200 µM (inactive) | 
COc1cc(/C=C2/SC(=S)N(Cc3ccccc3)C2=O)cc(Cl)c1O | > 200 µM (inactive) | 
Nc1ccc(S(=O)(=O)Nc2ccc(S(N)(=O)=O)cc2)cc1 | > 200 µM (inactive) | 
CC1=C(C#N)c2nc(N)c(C#N)c(C)c2/C1=C\c1ccc(-c2ccccc2C(=O)O)o1 | > 200 µM (inactive) | 
O=C1CCCC(O)=C1N=Nc1ccc(C(=O)O)cc1 | > 200 µM (inactive) | 
COc1ccc(C(C(=O)NCc2ccccc2)N(Cc2ccco2)C(=O)c2cnccn2)cc1 (centres undefined) | > 200 µM (inactive) | 
O=C(Nc1nc(-c2cc3ccccc3oc2=O)cs1)c1ccco1 | > 200 µM (inactive) | 
CC1CCN(C(=O)C2CCC(C)(C(=O)O)C2(C)C)CC1 (centres undefined) | > 200 µM (inactive) | 
N#CC1C=Cc2ccccc2N1C(=O)c1ccccc1 (centres undefined) | > 200 µM (inactive) | 
O=C(O)CCN1C(=O)/C(=C/c2cn(-c3ccccc3)nc2-c2cccs2)SC1=S | > 200 µM (inactive) | 
Cc1ccc(NC(=O)CCC(=O)NNC(=O)c2ccccc2[N+](=O)[O-])c(C)c1 | > 200 µM (inactive) | 
Cc1ccc(CNc2ccc(O)cc2)cc1 | > 200 µM (inactive) | 
CCOC(=O)C1(C)C=C(Nc2ccc(O)cc2)C(=O)N1c1ccc(O)cc1 (centres undefined) | > 200 µM (inactive) | 

SMILES | IC50 | pIC50
CC(=O)c1ccc(NC(=O)CC2Nc3cccc4cccc(c34)NC2=O)cc1 (centres undefined) | > 200 µM (inactive) | 
Cc1ccn2c(C(=O)CSc3ccc(Cl)cc3Cl)c(C)nc2c1 | > 200 µM (inactive) | 
CCCCn1c(NS(=O)(=O)c2ccccc2)c(S(=O)(=O)c2ccc(C)cc2)c2nc3ccccc3nc21 | > 200 µM (inactive) | 
Cc1c(C(=O)O)sc2nc(CSc3ncc(C(F)(F)F)cc3Cl)[nH]c(=O)c12 | > 200 µM (inactive) | 
CCCCn1c(NC(=O)c2ccco2)c(S(=O)(=O)c2ccc(C)cc2)c2nc3ccccc3nc21 | > 200 µM (inactive) | 
O=C(CC1Nc2cccc3cccc(c23)NC1=O)Nc1ccccc1 (centres undefined) | > 200 µM (inactive) | 
O=c1[nH]c(-c2ccc(F)cc2)nc2c1sc(=S)n2-c1ccccc1 | > 200 µM (inactive) | 
Cc1ccc(-n2cccn2)c([C@@H]2C[C@H]3CN(C)C(=O)[C@]34CCCN24)c1 | > 200 µM (inactive) | 
CCn1c(O)c(C=Nc2ccc(N3CCOCC3)cc2)c(=O)n(CC)c1=S |  | 4.86
Nc1ccc(O)c2c1C(=O)c1ccccc1C2=O |  | 5.24
Cc1c(Cc2ccccc2)c(=O)oc2c(C)c(OCC(=O)N[C@@H](Cc3ccccc3)C(=O)O)ccc12 | > 200 µM (inactive) | 
COC(=O)c1cc(NC(=O)c2ccccc2)c(=O)oc1/C=C/Nc1ccc(Oc2ccccc2)cc1 | > 200 µM (inactive) | 
O=C(Nc1ccc(Br)cc1)c1ccc(N2C(=O)C3CC=CCC3C2=O)cc1 (centres undefined) | > 200 µM (inactive) | 
CCCCn1c(NS(=O)(=O)c2ccccc2)c(C(=O)OCC)c2nc3ccccc3nc21 | > 200 µM (inactive) | 
CCNc1ccc(C(=O)O)cc1N | inactive | 
Cc1ccccc1NC(=O)CN1C(=O)N/C(=C\c2ccccc2OCc2ccc(C(=O)O)cc2)C1=O | > 200 µM (inactive) | 
O=C(O)c1cc(O)c2c(c1)C(=O)c1cccc(O)c1C2=O | inactive | 
CC1(C)OC(C)(C)/C(=C/Nc2ccc(O)cc2)C1=O | > 200 µM (inactive) | 
Cc1cc(C)c(C#N)c(Nc2ccccc2C)n1 | > 200 µM (inactive) | 
COCCCNc1c2c3c(cccc3[nH]c1=O)C(=O)c1ccccc1-2 | > 200 µM (inactive) | 
COc1cccc(CCC(=O)N(C)C2CCCN(Cc3ccccc3F)C2)c1 (centres undefined) | > 200 µM (inactive) | 
CC12CCC(C(=O)NCc3ccc(Cl)cc3)(OC1=O)C2(C)C (centres undefined) | > 200 µM (inactive) | 
COCCn1nnnc1C(c1cc2ccc(OC)cc2[nH]c1=O)N1CCc2ccccc2C1 (centres undefined) | > 200 µM (inactive) | 
